The text below walks through data of patent US9119886B2, “Immunoconjugates for the treatment of tumours” (MolMed SpA, priority 2002, dated 2015).

One assay concerns B16F1 cells. Kind of assay: 48 hour in vitro cytotoxicity assay on cultured B16F1 cells. It is filed as cell-based, mouse. From the text:
To assess whether the synergism depends directly on cytotoxicity against tumor cells we measured the effect of each compound, alone or in combination, on cultured B16F1 cells.

The test system of another assay is B16F1 melanoma. Kind of assay: anti-tumor activity (tumor growth) in B16F1 melanoma-bearing mice. It is filed as in vivo, C57BL/6 mice.
The test system of the next assay is RMA-T lymphoma. Kind of assay: anti-tumor activity (tumor growth) in RMA-T lymphoma-bearing mice. It is filed as in vivo, C57BL/6 mice. Conditions: RMA-T tumors, treatment at day 10, picogram doses.

Procedure for B16F1 melanoma: C57BL/6 mice (Charles River Laboratories, Calco, Italy) weighing 16-18 g were challenged with subcutaneous injection in the left flank of 5×10^4 RMA-T or B16F1 living cells; 4-12 days later, the mice were treated with TNF or NGR-TNF solutions (100 μl) followed 2 hours later by administration of melphalan or doxorubicin solution (100 μl). Unless specified, all drugs were administered intraperitoneally (i.p.). All drugs were diluted with 0.9% sodium chloride, containing 100 μg/ml endotoxin-free human serum albumin (Farma-Biagini, Lucca, Italy), except for doxorubicin, which was diluted with 0.9% sodium chloride alone. Tumor growth was monitored daily by measuring the tumors with calipers as previously described (20). Animals were sacrificed before the tumors reached 1.0-1.5 cm in diameter. Tumor sizes are shown as mean±SE (5 animals/group).
We then investigated whether targeted delivery of low doses of NGR-mTNF to tumor vessles could enhance the anti-tumor activity of chemotherapeutic drugs.

Take `N[C@@H](Cc1ccc(N(CCCl)CCCl)cc1)C(=O)O` [Melphalan]: the “killing of cultured cells” value in the assay with B16F1 cells was “Neither melphalan or NGR-mTNF, alone or in combination, killed these cells”. Besides, in the assay with B16F1 melanoma (melphalan 90 μg, mTNF or NGR-mTNF 0.1 ng i.p.), the “effect on tumor growth, single agent” value is “unable to effect the growth of tumors”.

B1: NGR-TNF: TNF fused with the C-terminus of CNGRCG; human or murine form not specified at the place (Example 15 used NGR-mTNF) (protein)
chain: CNGRCGMSTESMIRDVELAEEALPQKMGGFQNSRRCLCLSLFSFLLVAGATTLFCLLNFGVIGPQRDEKFPNGLPLISSMAQTLTLRSSSQNSSDKPVAHVVANHQVEEQLEWLSQRANALLANGMDLKDNQLVVPADGLYLVYSQVLFKGQGCPDYVLLTHTVSRFAISYQEKVNLLSAVKSPCPKDTPEGAELKPWYEPIYLGGVFQLEKGDQLSAEVNLPKYLDFAESGQVYFGVIAL
B1: in the assay on B16F1 melanoma (systemic administration to mice), the “dose sufficient to enhance the anti-tumor activity of melphalan and doxorubicin” value was in the range of 0.003 to 0.005 µg/kg. Further, in the assay with RMA-T lymphoma, the “enhancement of therapeutic effect of cisplatinum” value is given as “sufficient to enhance the therapeutic effect of cisplatinum”.
